Experimental data from paper PMC10036753, “Orally disintegrating tablets containing famotidine nanoparticles provide high intestinal absorbability via the energy-dependent endocytosis pathway” (Frontiers in Bioengineering and Biotechnology, 2023).

Legend:
[1] = Particle size distribution of FAM dispersions and redispersed FAM tablets (NanoSight LM10); assay type: physicochemical
Protocol: The characterization of the FAM tablets and their redispersion were evaluated in accordance with our previous study ([Deguchi et al., 2021]; [Nagai et al., 2022]). Briefly, the shape and dimensions of the tablets were analyzed using ImageJ image analysis software 1.53. Hardness was measured using a Force Tester MCT-2150 (A&D Co., Ltd., Toshimaku, Japan), and friability was measured using an Oriental Reaction Motor (ORIENTAL MOTOR Co., Ltd., Tokyo, Japan). The disintegration of FAM tablets was evaluated using NT-2H (TOYAMA SANGO Co. Ltd., Osaka, Japan). The friability and disintegration of the FAM tablets were measured according to the Japanese Pharmacopoeia (18th edition). The FAM tablets were dispersed in 10 mL of purified water and the redispersion, solubility, viscosity, and intestinal penetration were measured. The particle distributions of the FAM dispersions and redispersed FAM tablets were measured by […] NanoSight LM10 (Quantum Design Japan, Tokyo, Japan), and the measurement time, wavelength, and viscosity were set to 60 s, 405 nm (blue) and 1.27 mPa s, respectively. Scanning electron microscopy (SEM) images were obtained using NeoScope™ JCM-7000 (JEOL Ltd., Tokyo, Japan). […] The viscosity of the redispersed FAM tablet was measured at 20°C–40°C using an SV-1A viscometer (A&D Company, Limited, Tokyo, Japan).

[2] = Pharmacokinetic study of FAM tablet in the rat; assay type: in vivo, Wistar rats; conditions: Wistar, plasma, intravenous, single injection of FAM solution in DMSO (0.04 mg/kg) into the femoral vein
Protocol: FAM concentration was determined by HPLC using an LC-20AT HPLC system (Shimadzu Corp., Kyoto, Japan). A Luna® 5 µm C18 column (100 Å, 150 × 4.6 mm, GL Science Co., Inc., Tokyo, Japan) was used for the measurement, and the mobile phase [one-heptanesulfonic acid sodium salt/acetonitrile/methanol (25/6/1)] was followed at 0.25 mL/min. The sample was mixed with an internal standard (methyl p-hydroxybenzoate) in methanol and 10 µL of the mixture was injected into the HPLC system using an SIL-20AC HPLC auto injector. In this study, the FAM levels were measured at 254 nm (wavelength for detection).
Blood (200 μL) was collected from the right jugular vein at the indicated time intervals (0, 10, 20, 30, and 360 min). The collected blood was centrifuged at 800 × g for 15 min at 4°C, and the supernatant was used for measurement.

[3] = without bead-milling treatment
Protocol: First, 3 mL of each FAM dispersion were incubated in 5 mL test tubes in the dark at 20°C for 28 days. Images of the FAM dispersions were captured with a digital camera. The dispersions (50 μL) were withdrawn from 5 mm under the surface at the indicated time intervals (0, 7, 14, 21, and 28 days), and the FAM concentration was measured using the HPLC methods described above. In this study, the difference in FAM concentrations before and after the start of the experiment was estimated, and the changes in FAM levels on the surface were defined as the dispersibility of the FAM dispersions.

H2 receptors = conditions: ref Hassan et al., 1990; Patel and Patel, 2013; cited from earlier work
[4] = ref Jha et al., 2014; cited from earlier work
[5] = oral, 40 mg daily; ref Lyon, 1986; Ramchandran et al., 2011; cited from earlier work
[6] = ref Khalifa and Abdul Rasool, 2017; cited from earlier work

NC(N)=Nc1nc(CSCCC(N)=NS(N)(=O)=O)cs1 [FAM, Famotidine]
Mean particle size of FAM ([1]; dispersion with bead-milling treatment): 108 ± 5.7 nm | Mean particle size of FAM ([1]; dispersion without bead-milling treatment): 23.7 ± 2.1 µm | Vd ([2]; read-out: Distribution volume (V d)): 0.064 L | k el ([2]; read-out: Elimination rate constant (k e) (converted)): 2.17e-05 s⁻¹ | Time after preparation at which FAM was precipitated [3]: 24 h | Inhibitory effect relative to cimetidine (H2 receptors): 20 fold | Inhibitory effect relative to ranitidine (H2 receptors): 7.5 fold | Intestinal penetration after oral administration [4]: < 50% | Tolerability [5]: well tolerated | BCS classification [6]: class III
